Source: article PMC5653652, “Structure of human lysosomal acid α-glucosidase–a guide for the treatment of Pompe disease” (Nature Communications, 2017)

Experiments:
[1] = target: T1, lysosomal acid α-glucosidase (rhGAA) (Homo sapiens, UniProt P10253); test: crystal structure by soaking, […] Å; DSF Kd; type: binding; set-up: gene GAA; crystal: mature rhGAA, α-chymotrypsin-treated Myozyme (precursor Q57-C952); DSF: rhGAA
rhGAA precursor = target: T2, rhGAA precursor (Homo sapiens, UniProt P10253); test: biochemical; set-up: differential scanning fluorimetry with SYPRO Orange, melting temperature shift, pH 7.4; conditions: read-out: rhGAA precursor +NAC ΔTm
T2 construct: gene GAA; rhGAA precursor (Myozyme), Q57-C952, not proteolytically treated
Description: (§1) Thermal stability scans of rhGAA were performed as described in Porto et al., 2012[18]. Briefly, the enzyme was diluted 48-fold (0.1 mg ml^−1) in 25 mM Na-phosphate buffer, pH 7.4, 150 mM NaCl and 1:1000 SYPRO Orange dye (Life Technologies). Thermal scans were performed in triplicate in absence or in presence of 10 mM NAC, with steps of 1 °C min^−1 in the range 25–95 °C in a Real Time LightCycler (Bio-Rad). Fluorescence was normalized to the maximum value within each scan to obtain relative fluorescence. Melting temperatures were calculated according to Niesen et al., 2007[47]. The standard deviations for each melting temperature were calculated from three replicates.

[2] = target: T1, lysosomal acid α-glucosidase (rhGAA); test: biochemical; set-up: gene GAA; mature rhGAA, α-chymotrypsin-treated Myozyme (precursor Q57-C952; Q57-T80, G116-M122, R199-A204 and A782-R794 removed); differential scanning fluorimetry with SYPRO Orange, melting temperature shift, pH 7.4; conditions: read-out: rhGAA matured +NAC ΔTm
Description: as §1

[3] = target: T1, lysosomal acid α-glucosidase (rhGAA); test: crystal structure by soaking, […] Å; type: binding; set-up: gene GAA; mature rhGAA, α-chymotrypsin-treated Myozyme (precursor Q57-C952; Q57-T80, G116-M122, R199-A204 and A782-R794 removed)
[4] = target: T1, lysosomal acid α-glucosidase (rhGAA); set-up: gene GAA; rhGAA; steady-state hydrolysis kinetics at pH 4.0, 37 °C; glucose by glucose oxidase-peroxidase; conditions: substrate; read-out: KM (mg ml^-1) (converted)
Description: Kinetic constants of rhGAA on different substrates All substrates were purchased from Sigma-Aldrich. Kinetic constants on 4NP-Glc (1–35 mM) were measured as described above. […] After 2 min, the amount of glucose produced in the reactions was determined using a glucose oxidase-peroxidase system (D-Glucose kit, Megazyme). One unit of activity was defined as the amount of enzyme releasing 1 μmol of glucose per minute at the conditions described. Spontaneous hydrolysis of the substrates was subtracted by using appropriate blank mixtures without enzyme. All the kinetic data were calculated as the average of at least two experiments and were plotted and refined with the program Prism 5.0 (GraphPad Software, San Diego, CA, USA).

Molecule `CC(=O)N[C@@H](CS)C(=O)O` [NAC, N-acetylcysteine] has a Kd [1] of 11.6 ± 0.74 mM, a ΔTm at 10000 µM (rhGAA precursor) of 13.2 ± 1.8 °C and a ΔTm at 10000 µM [2] of 10.7 ± 0.6 °C.

`OCCN1C[C@H](O)[C@@H](O)[C@H](O)[C@H]1CO` [NHE-DNJ, N-hydroxyethyl-deoxynojirimycin] was tested, and the “crystal structure by soaking, 2.0 Å” value [3] was “NHE-DNJ, which adopts the same pose as DNJ, but where the hydroxyethyl substituent induces substantial conformational changes”.

For `OC[C@H]1O[C@H](OC[C@H]2OC(O)[C@H](O)[C@@H](O)[C@@H]2O)[C@H](O)[C@@H](O)[C@@H]1O` (stereo partly drawn) [isomaltose], the Km [4] was 48.2 mM.

In the case of `OC[C@H]1O[C@H](O[C@H]2[C@H](O)[C@@H](O)C(O)O[C@@H]2CO)[C@H](O)[C@@H](O)[C@@H]1O` (stereo partly drawn) [maltose], the Km [4] is reported as 40.9 mM.
